In patent US4798898A, “Antitussive and mucus regulating 2-substituted thiazolidines” (Boehringer Biochemia Robin S.p.A., priority 1984, dated 1989):
Structures can show the parent of a compound that is named as a salt.

What was measured:
[1] = test system: cough induced by electric stimulation in dogs; test: Dog cough test (cough induced by electric stimulation, Stefko procedure); format: in vivo, conscious mongrel dogs; settings: for duration of action: in words; for % inhibition of cough stimulus: oral, dose not given; for duration of action (antitussive): test not named
Procedure: (§1) The techniques described by Charlier et al. (Arch. Int. Pharmacodyn. 134, 306, 1961) and by Stefko et al. (J. Pharm. Exp. Therap., 108, 217, 1953), adapted with minor modifications, are used to investigate the antitussive properties of the compounds of the invention. Codeine phosphate is used as positive reference compound.
In the Stefko procedure, conscious mongrel dogs (15±3 kg body weight) are used; the compounds of the invention are tested for their ability to inhibit cough induced by electric stimulation.
Under general anesthesia, two insulated nichrome wires (0.4 mm diameter) are surgically implanted into the submucosa of the trachea.
About two days later, the dogs are placed in a sling and the exteriorized electrodes are connected to an electric stimulating device (such as Grass S 48 Mod.).
The stimulation parameters such as: delay 0.01 msec, duration 1 msec, frequency 30 Hz, are used.
An electrical stimulus of 1 sec is applied 10 times at 5 sec intervals in order to determine the minimum voltage necessary for eliciting reproducible cough responses. Then, tussive responses to the electrical stimuli are registered at 15, 30, 60, 90, 120, 150, 180, 240, 300 and 360 minutes after oral administration of the compounds of the invention.
The tussive responses are scored as follows: 1: no response; 2: sigh or exaggerated expiration; 3: marked cough; 4: one marked cough and one exaggerated expiration: 5: two marked coughs.
Six dogs are employed for each determination and the mean activity is calculated.
The inhibition percent of the cough response and the duration of activity are compared with codeine.

[2] = test system: cough induced by citric acid aerosol in guinea pigs; test: Guinea pig cough test (citric acid aerosol, Charlier procedure); format: in vivo; settings: for ED50: guinea pig cough test, i.p., 60 minutes after treatment
Procedure: as §1
According to the Charlier procedure guinea pigs are exposed to a citric acid aerosol (7.5%) and cough is recorded 60 minutes after the antitussive treatment by i.p. route. Male animals of 300-400 g pigs are placed in perspex box (20×30×30 cm) connected to an aerosol compressor; the animals are subjected to a citric acid saturated atmosphere, 60 minutes after the i.p. injection of a compound of the invention (0.1 and 0.3M solutions; 1 ml/kg).
The total number of cough strokes and the delay of the first cough are recorded during the first five minutes.
Five guinea pigs are used for each dose level and the results are compared with controls (vehicle treatment) and codeine phosphate 0.07M solution (standard treatment).
ED50 and the corresponding delay of first cough stroke are calculated.
The data obtained by i.p. administration are confirmed by oral administration.

[3] = test system: pathological sputum of bronchitic rabbits; test: Mucus regulating properties in bronchitic rabbits (sputum AUC as % compared to bronchitic controls); format: in vivo, male New Zealand white rabbits; settings: for Fucose (mg/ml), AUC as a 100% compared to bronchitic controls / Galactose (mg/ml), AUC as a 100% compared to bronchitic controls / Mucus production (ml/kg), AUC as a 100% compared to bronchitic controls / Phospholipids (mg/ml), AUC as a 100% compared to bronchitic controls / Protein (mg/ml), AUC as a 100% compared to bronchitic controls / Sialic acid (mg/ml), AUC as a 100% compared to bronchitic controls / Viscosity (cps), AUC as a 100% compared to bronchitic controls: Table 2, oral, equimolecular amounts to S-carboxymethyl cysteine; for mucus regulating activity (in words): rabbit, in vivo
Procedure: The animals are submitted to inhalation of a 5% H2 SO3 aqueous solution by aerosol (exposition of 3 hours a day for 3 alternate days), to induce a chronic bronchial inflammatory disease which causes a production of pathological sputum in the bronchial tree.
Aim of the experiments is to evaluate modifications of selective parameters such as dry weight of the sputum, viscosity, content in proteins, phospholipids, galactose, sialic acid and fucose, induced in this pathological sputum by pharmacological treatment with the compounds of the invention.
To this purpose, the sputum produced in the bronchial tree is collected daily, through a "T" shaped glass cannula, inserted in the trachea, before and after oral twice a day (9.00 a.m. and 4.00 p.m.) treatment with one of the compounds of the invention.
The schedule treatment procedure is shown in the following Scheme 1: [drawing 21] where 0 indicates the day of implantation of the tracheal cannula; -7-5-3 indicate the days of H2 SO3 treatment (H); 1, 2, 3, 4 indicate the days of oral administration of the compounds of the invention (T) and the time of mucus collection (M).
The mucus collected in day 1 in the morning is considered as a blank; 7 indicates the day of the animal sacrifice after the mucous collection.
The sputum samples are stored in the freezer (-20° C.) until the investigation of biological and rheological parameters is carried out.
The samples are investigated for relative viscosity, measured at 37° C. with a Brookfield viscometer (model LT VD) equipped with a 1,565° cone-plate, and aliquoted for biochemical analysis of protein, phospholipids, galactose, sialic acid and fucose contents. Dry weight of the mucus is also determined. For each parameter, cumulative data are referred to a seven days period after the beginning of the treatment and they are extrapolated using the AUC method (area under curve) calculated by the trapazoidal rule. Finally the data are compared with data obtained from controls (vehicle treatment), non bronchitic rabbits (vehicle treatment) and positive controls bronchitic rabbits treated with 0.153M […].

[4] = test system: cough induced by citric acid aerosol in guinea pigs; test: Guinea pig cough test (citric acid aerosol, Charlier procedure); format: in vivo; settings: Cavia porcellus, inhaled or nasal, antitussive test not given
Acute toxicity in mice = settings: mouse, in vivo
mice = test: Sedative effect; format: in vivo
[5] = test system: bronchospasm induced by i.v. histamine; test: Resolution of bronchospasm induced by i.v. histamine in anesthetized guinea-pigs (Konzett-Ressler test); format: in vivo; settings: intrajugular administration; more active than aminophylline
[6] = test system: guinea pig trachea smooth muscle strips; test: In vitro relaxation of guinea pig trachea smooth muscle strips contracted by methacoline; settings: for EC50: Cavia porcellus, contracted by methacoline, read-out: ED50 (relaxation of trachea smooth muscle strips)

COc1ccccc1OCC1SCCN1C(=O)C1CC1 (stereo not shown) [3-cyclopropylcarbonyl-2-(o-methoxyphenoxy)methylthiazolidine]
antitussive properties (in words) ([1]; dog cough test): devoid of any antitussive properties | antitussive properties (in words) [2]: devoid of any antitussive properties | Fucose (mg/ml), AUC as a 100% compared to bronchitic controls [3]: 103.6% | Galactose (mg/ml), AUC as a 100% compared to bronchitic controls [3]: 60.0% | Mucus production (ml/kg), AUC as a 100% compared to bronchitic controls [3]: 90% | Phospholipids (mg/ml), AUC as a 100% compared to bronchitic controls [3]: 74.5% | Protein (mg/ml), AUC as a 100% compared to bronchitic controls [3]: 57.9% | Sialic acid (mg/ml), AUC as a 100% compared to bronchitic controls [3]: 60% | Viscosity (cps), AUC as a 100% compared to bronchitic controls [3]: 92.6%

O=C(Cn1ccnc1)N1CCSC1COc1ccccc1O (stereo not shown) [3-(imidazol-1'-yl)acetyl-2-[(o-hydroxyphenoxy)methyl]thiazolidone]
mucus regulating activity (in words) [3]: strong mucus regulating activity | ED50 [4]: 96 mg/kg

Cc1ccccc1OCC1SCCN1C(=O)Cn1ccnc1 (stereo not shown) [2-tolyloxy-methyl-3-(imidazol-1'-yl)acetylthiazolidine]
antitussive properties (in words) ([1]; dog cough test): not active in the cough tests | antitussive properties (in words) [2]: not active in the cough tests | mucus regulating activity (in words) [3]: some mucus regulating action in the bronchitic rabbits, with a spectrum of action very close to that of carboxymethylcysteine

COc1ccccc1OCC1(COc2ccccc2OC)SCCN1C(=O)CSC(C)=O
duration of action ([1]; dog cough test): very prolonged action | duration of action relative to codeine phosphate ([1]; dog cough test, longer than codeine phosphate): 2-3 times | % inhibition of cough stimulus ([1]; dog): 13% | ED50 [4]: 230 mg/kg

CCOC(=O)[C@@H]1CSC(COc2ccccc2OC)N1C(=O)CSC(C)=O (stereo partly shown) [4-carbethoxy-2-(o-methoxyphenoxy)methyl-3-acetylthioacetyl-thiazolidine]
Fucose (mg/ml), AUC as a 100% compared to bronchitic controls [3]: 111% | Galactose (mg/ml), AUC as a 100% compared to bronchitic controls [3]: 69% | Mucus production (ml/kg), AUC as a 100% compared to bronchitic controls [3]: 65% | Phospholipids (mg/ml), AUC as a 100% compared to bronchitic controls [3]: 102% | Protein (mg/ml), AUC as a 100% compared to bronchitic controls [3]: 79% | Sialic acid (mg/ml), AUC as a 100% compared to bronchitic controls [3]: 78% | Viscosity (cps), AUC as a 100% compared to bronchitic controls [3]: 91% | LD50 (Acute toxicity in mice; ip): 670 mg/kg | LD50 (Acute toxicity in mice; po, os): 760 mg/kg | sedative effect, starting dose (mice): ≥ 30 mg/kg

C#CCOc1ccccc1OCC1SCCN1C(=O)CCNCCNCCO (stereo not shown)
duration of action (antitussive) [1]: very prolonged duration of action | ED50 [4]: 3 to 6 mg/kg

COc1ccccc1OCC1SCCN1C(=O)C=Cc1cc(CN2CCOCC2)c(O)c(OC)c1 (stereo not shown) [3-(3'-morpholinomethyl-4'-hydroxy-3'-methoxy-cinnamoyl)-2-(O-methoxyphenoxy)methylthiazolidine hydrochloride]
activity relative to aminophylline in the resolution of bronchospasm [5]: 3-6 times | spasmolytic activity (in words) [6]: favourably compares with that of dihydroxypropyltheophylline | EC50 [6]: 190 µM

COc1ccccc1OCC1SCCN1C(=O)CCNCCNCCO (stereo not shown) [3-(3-(2-hydroxyethylamino)ethyl)aminopropanoyl-2-((O-methoxyphenoxy)methyl-thiazolidinebis maleate]
duration of action (antitussive) [1]: very prolonged duration of action | ED50 [4]: 3 to 6 mg/kg

Cn1c(=O)c2c(ncn2CC(O)CO)n(C)c1=O (stereo not shown) [dihydroxypropyltheophylline, reference compound]
EC50 [6]: 76 µM

COc1ccccc1OCC1N[C@H](C(=O)O)CS1 (stereo partly shown) [4-carboxy-2-(o-methoxyphenoxymethyl)thiazolidine]
duration of action ([1]; dog cough test): middle | % inhibition of cough stimulus ([1]; dog): 43.8% | ED50 [2]: inactive | Fucose (mg/ml), AUC as a 100% compared to bronchitic controls [3]: 55% | Galactose (mg/ml), AUC as a 100% compared to bronchitic controls [3]: 29% | Mucus production (ml/kg), AUC as a 100% compared to bronchitic controls [3]: 95% | Phospholipids (mg/ml), AUC as a 100% compared to bronchitic controls [3]: 49% | Protein (mg/ml), AUC as a 100% compared to bronchitic controls [3]: 48% | Sialic acid (mg/ml), AUC as a 100% compared to bronchitic controls [3]: 52% | Viscosity (cps), AUC as a 100% compared to bronchitic controls [3]: 40%

COc1ccccc1OCC1SCCN1C(=O)CSC(C)=O (stereo not shown) [2-(o-methoxyphenoxy)methyl-3-acetylthioacetylthiazolidine]
duration of action ([1]; dog cough test): more favourable duration of action in comparison to codeine | inhibition of the cough stimulus ([1]; dog, 20 mg/kg): 54.2% | antitussive properties (in words) [2]: good antitussive activity | ED50 ([2]; 60 min): 77.1 mg/kg | ED50 ([2]; listed as 3-Acetylthioacetyl-2-(o-methoxyphenoxymethyl)thiazolidine, 60 min): lower than 5 mg/kg | Fucose (mg/ml), AUC as a 100% compared to bronchitic controls [3]: 151% | Galactose (mg/ml), AUC as a 100% compared to bronchitic controls [3]: 57% | Mucus production (ml/kg), AUC as a 100% compared to bronchitic controls [3]: 127% | Phospholipids (mg/ml), AUC as a 100% compared to bronchitic controls [3]: 37% | Protein (mg/ml), AUC as a 100% compared to bronchitic controls [3]: 78% | Sialic acid (mg/ml), AUC as a 100% compared to bronchitic controls [3]: 107% | Viscosity (cps), AUC as a 100% compared to bronchitic controls [3]: 59% | mucus regulating activity (in words) [3]: mucus regulating properties

C=CCOc1ccccc1OCC1SCCN1C(=O)CN (stereo not shown)
ED50 [4]: 3 to 30 mg/kg

COc1ccccc1OCC1SCCN1C(=O)Cn1ccnc1 (stereo not shown) [3-(imidazol-1-yl)acetyl-2-(o-methoxyphenoxy)methyl-thiazolidine]
Fucose (mg/ml), AUC as a 100% compared to bronchitic controls [3]: 97.5% | Galactose (mg/ml), AUC as a 100% compared to bronchitic controls [3]: 21.8% | Mucus production (ml/kg), AUC as a 100% compared to bronchitic controls [3]: 162.5% | Phospholipids (mg/ml), AUC as a 100% compared to bronchitic controls [3]: 65.8% | Protein (mg/ml), AUC as a 100% compared to bronchitic controls [3]: 55.2% | Sialic acid (mg/ml), AUC as a 100% compared to bronchitic controls [3]: 63.8% | Viscosity (cps), AUC as a 100% compared to bronchitic controls [3]: 39.1% | mucus regulating activity (in words) [3]: strong mucus regulating activity | ED50 [4]: 40.6 mg/kg

COc1ccccc1OCC1SCCN1C(=O)CNC(C)=O (stereo not shown) [3-(N-acetylaminoacetyl)-2-(O-methoxyphenoxy)methyl-thiazolidine]
ED50 [4]: 3 to 30 mg/kg

CCOC(=O)[C@@H]1CSC(COc2ccccc2OC)(COc2ccccc2OC)N1 [2,2-di(o-methoxyphenoxy)methyl-4-carbethoxythiazolidine]
ED50 [4]: 116 mg/kg

COc1ccccc1OCC1SCCN1C(=O)OC(C)(C)C (stereo not shown) [3-BOC-2-(O-methoxyphenoxy)-methyl-thiazolidine]
ED50 [4]: 3 to 30 mg/kg

COc1ccccc1OCC1SCCN1C(=O)CN (stereo not shown) [3-glycinyl-2-(O-methoxyphenoxy)methyl-thiazolidine]
ED50 [4]: 3 to 30 mg/kg
